Laboratory results reported in the supplement of paper PMC10883282.

Tests used:
Experiment in all cases: standardised AUC of viability dose-response curve (72 h) (fraction (0-1)); higher = less growth inhibition (more resistant)
SW684 = tested on: SW684
Method in brief: (§1)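 Viability of sarcoma cell lines was read with ATPLite after 72 h of triplicate treatment in 384-well plates with 2.5 µl of compound from a compound-plate series of 10 mM to 0.0002 mM. Viability was scaled 1 (full) to 0 (none) and fitted with a four-parameter log-logistic model for each drug and cell line. The reported standardised area under the dose-response curve in log-dose space comes from a modified drexplorer computeAUC, where 1 is no response and 0 is full response.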

KHOS-240S = tested on: KHOS-240S
Method in brief: as §1

VA-ES-BJ = tested on: VA-ES-BJ
Method in brief: as §1

SW982 = tested on: SW982
Method in brief: as §1

HT1080 = tested on: HT1080
Method in brief: as §1

MES-SA = tested on: MES-SA
Method in brief: as §1

SW1353 = tested on: SW1353
Method in brief: as §1

SYO-1 = tested on: SYO-1
Method in brief: as §1

SW872 = tested on: SW872
Method in brief: as §1

A204 = tested on: A204
Method in brief: as §1

RD = tested on: RD
Method in brief: as §1

RD-ES = tested on: RD-ES
Method in brief: as §1

G401 = tested on: G401
Method in brief: as §1

SK-ES-1 = tested on: SK-ES-1
Method in brief: as §1

HS729 = tested on: HS729
Method in brief: as §1

SK-LMS-1 = tested on: SK-LMS-1
Method in brief: as §1

KHOS-NP = tested on: KHOS-NP
Method in brief: as §1

| SMILES | standardised AUC (SW684) | standardised AUC (KHOS-240S) | standardised AUC (VA-ES-BJ) | standardised AUC (SW982) | standardised AUC (HT1080) | standardised AUC (MES-SA) | standardised AUC (SW1353) | standardised AUC (SYO-1) | standardised AUC (SW872) | standardised AUC (A204) | standardised AUC (RD) | standardised AUC (RD-ES) | standardised AUC (G401) | standardised AUC (SK-ES-1) | standardised AUC (HS729) | standardised AUC (SK-LMS-1) | standardised AUC (KHOS-NP) |
| --- | --- | --- | --- | --- | --- | --- | --- | --- | --- | --- | --- | --- | --- | --- | --- | --- | --- |
| CCCS(=O)(=O)N[C@H]1C[C@@H](N(C)c2ncnc3[nH]ccc23)C1 [ABROCITINIB] | 0.989 | 0.989 | 1 | 0.997 | 1 | 0.996 | 1 | 1 | 0.991 | 0.984 | 0.995 | 1 | 0.985 | 0.985 | 0.982 | 0.997 | 0.994 |
| COc1cc2c(Oc3ccc4[nH]c(C)cc4c3F)ccnc2cc1OCC1(N)CC1 [ANLOTINIB] | 0.944 | 0.883 | 0.941 | 0.904 | 0.965 | 0.876 | 0.909 | 0.736 | 0.936 | 0.708 | 0.903 | 0.914 | 0.872 | 0.851 | 0.909 | 0.868 | 0.93 |
| CCN(CCCOc1ccc2c(Nc3cc(CC(=O)Nc4cccc(F)c4)[nH]n3)ncnc2c1)CCOP(=O)(O)O [BARASERTIB] | 0.972 | 0.856 | 0.8 | 0.745 | 0.925 | 0.685 | 0.915 | 0.581 | 0.94 | 0.816 | 0.826 | 0.5 | 0.869 | 0.4 | 0.928 | 0.938 | 1 |
| COc1cc(Nc2c(C#N)cnc3cc(OCCCN4CCN(C)CC4)c(OC)cc23)c(Cl)cc1Cl [BOSUTINIB] | 0.883 | 0.851 | 0.85 | 0.795 | 0.917 | 0.861 | 0.895 | 0.909 | 0.848 | 0.93 | 0.895 | 0.856 | 0.932 | 0.78 | 0.906 | 0.932 | 0.87 |
| COc1cc2nccc(Oc3ccc(NC(=O)C4(C(=O)Nc5ccc(F)cc5)CC4)cc3)c2cc1OC [CABOZANTINIB] | 0.827 | 0.923 | 0.913 | 0.916 | 0.965 | 0.871 | 0.855 | 0.714 | 0.908 | 0.656 | 0.95 | 0.919 | 0.856 | 0.89 | 0.809 | 0.661 | 0.96 |
| Cc1cc(Nc2ncc(Cl)c(Nc3ccccc3S(=O)(=O)C(C)C)n2)c(OC(C)C)cc1C1CCNCC1 [CERITINIB] | 0.923 | 0.874 | 0.933 | 0.827 | 0.918 | 0.916 | 0.865 | 0.884 | 0.901 | 0.87 | 0.81 | 0.784 | 0.833 | 0.751 | 0.889 | 0.924 | 0.933 |
| C[C@@H](Oc1cc(-c2cnn(C3CCNCC3)c2)cnc1N)c1c(Cl)ccc(F)c1Cl [CRIZOTINIB] | 0.901 | 0.873 | 0.817 | 0.74 | 0.919 | 0.765 | 0.915 | 0.745 | 0.834 | 0.877 | 0.824 | 0.758 | 0.859 | 0.72 | 0.879 | 0.717 | 0.944 |
| COc1cc2ncnc(Nc3ccc(F)c(Cl)c3)c2cc1NC(=O)/C=C/CN1CCCCC1 [DACOMITINIB] | 0.888 | 0.896 | 0.893 | 0.814 | 0.916 | 0.858 | 0.804 | 0.856 | 0.87 | 0.842 | 0.869 | 0.879 | 0.89 | 0.824 | 0.907 | 0.91 | 0.939 |
| Cc1nc(Nc2ncc(C(=O)Nc3c(C)cccc3Cl)s2)cc(N2CCN(CCO)CC2)n1 [DASATINIB] | 0.767 | 0.617 | 0.651 | 0.607 | 0.941 | 0.949 | 0.712 | 0.736 | 0.716 | 0.612 | 0.658 | 0.949 | 0.86 | 0.907 | 0.774 | 0.78 | 0.725 |
| COc1cc(OC)cc(N(CCNC(C)C)c2ccc3ncc(-c4cnn(C)c4)nc3c2)c1 [ERDAFITINIB] | 0.924 | 0.773 | 0.912 | 0.816 | 0.964 | 0.796 | 0.868 | 0.581 | 0.856 | 0.555 | 0.924 | 0.891 | 0.604 | 0.818 | 0.685 | 0.91 | 0.971 |
| C#Cc1cccc(Nc2ncnc3cc(OCCOC)c(OCCOC)cc23)c1 [ERLOTINIB] | 0.992 | 0.994 | 0.955 | 0.927 | 0.992 | 0.941 | 0.926 | 0.978 | 0.946 | 0.943 | 0.984 | 0.983 | 0.982 | 0.893 | 0.956 | 0.968 | 0.994 |
| Cc1ccc(NC(=O)c2ccc(CN3CCN(C)CC3)cc2)cc1Nc1nccc(-c2cccnc2)n1 [IMATINIB] | 0.983 | 0.949 | 0.987 | 0.98 | 0.974 | 0.973 | 0.984 | 0.865 | 0.979 | 0.725 | 0.988 | 0.983 | 0.957 | 0.962 | 0.959 | 0.982 | 0.966 |
| N#CCC1(n2cc(-c3ncnc4[nH]ccc34)cn2)CN(C2CCN(C(=O)c3ccnc(C(F)(F)F)c3F)CC2)C1 [ITACITINIB] | 0.983 | 0.96 | 0.948 | 0.974 | 0.977 | 0.977 | 0.95 | 0.867 | 0.922 | 0.965 | 0.997 | 0.975 | 0.968 | 0.969 | 0.853 | 0.948 | 0.946 |
| N#Cc1ccnc(N2C(=O)CC[C@H]2C(=O)N(c2cncc(F)c2)[C@H](C(=O)NC2CC(F)(F)C2)c2ccccc2Cl)c1 [IVOSIDENIB] | 0.993 | 0.988 | 0.987 | 0.974 | 1 | 0.999 | 0.993 | 0.985 | 1 | 0.972 | 0.992 | 0.988 | 0.981 | 0.997 | 0.986 | 0.977 | 0.993 |
| COc1cc2nccc(Oc3ccc(NC(=O)NC4CC4)c(Cl)c3)c2cc1C(N)=O [LENVATINIB] | 0.992 | 0.888 | 1 | 0.966 | 0.995 | 0.911 | 0.914 | 0.701 | 0.978 | 0.587 | 0.999 | 0.937 | 0.845 | 0.898 | 0.866 | 0.984 | 1 |
| C[C@H]1Oc2cc(cnc2N)-c2c(nn(C)c2C#N)CN(C)C(=O)c2ccc(F)cc21 [LORLATINIB] | 0.983 | 0.953 | 0.941 | 0.887 | 0.977 | 0.951 | 0.928 | 0.895 | 0.861 | 0.959 | 0.926 | 0.932 | 0.96 | 0.963 | 0.871 | 0.952 | 0.957 |
| Cc1c(F)cc(C(=O)NC2CC2)cc1-c1ccc(C(=O)NCC(C)(C)C)cn1 [LOSMAPIMOD] | 0.995 | 0.944 | 0.941 | 0.991 | 0.999 | 0.944 | 0.993 | 0.933 | 0.992 | 0.977 | 0.981 | 0.95 | 0.941 | 0.929 | 0.87 | 0.973 | 0.999 |
| CO[C@@H]1[C@H](N(C)C(=O)c2ccccc2)C[C@H]2O[C@]1(C)n1c3ccccc3c3c4c(c5c6ccccc6n2c5c31)C(=O)NC4 [MIDOSTAURIN] | 0.835 | 0.709 | 0.785 | 0.709 | 0.8 | 0.731 | 0.733 | 0.642 | 0.757 | 0.715 | 0.81 | 0.764 | 0.778 | 0.689 | 0.796 | 0.773 | 0.812 |
| Cc1ccc(C(=O)OCc2ccc([C@@H](CN)C(=O)Nc3ccc4cnccc4c3)cc2)c(C)c1 [NETARSUDIL] | 0.926 | 0.828 | 0.985 | 0.91 | 0.952 | 0.857 | 0.855 | 0.884 | 0.893 | 0.85 | 0.923 | 0.914 | 0.949 | 0.921 | 0.966 | 0.886 | 0.951 |
| Cc1cn(-c2cc(NC(=O)c3ccc(C)c(Nc4nccc(-c5cccnc5)n4)c3)cc(C(F)(F)F)c2)cn1 [NILOTINIB] | 1 | 0.947 | 0.981 | 0.976 | 0.972 | 0.957 | 0.996 | 0.843 | 0.971 | 0.799 | 0.926 | 0.949 | 0.954 | 0.909 | 0.917 | 1 | 0.989 |
| NC(=O)c1cccc2cn(-c3ccc([C@@H]4CCCNC4)cc3)nc12 [NIRAPARIB] | 0.989 | 0.983 | 0.966 | 0.94 | 0.999 | 0.961 | 0.966 | 0.842 | 1 | 0.949 | 0.956 | 0.874 | 0.971 | 0.8 | 0.977 | 0.979 | 1 |
| C=CC(=O)Nc1cc(Nc2nccc(-c3cn(C)c4ccccc34)n2)c(OC)cc1N(C)CCN(C)C [OSIMERTINIB] | 0.939 | 0.923 | 0.916 | 0.907 | 0.938 | 0.893 | 0.919 | 0.798 | 0.918 | 0.873 | 0.921 | 0.89 | 0.904 | 0.847 | 0.874 | 0.925 | 0.974 |
